# Reference: paper PMC11861159, “Design, synthesis, and in vitro, in vivo, and in silico evaluation of novel substituted 1,3,4-thiadiazole derivatives as anticonvulsant agents” (Frontiers in Chemistry, 2025)
# Key:
# [1] = biological target: T1, human carbonic anhydrase II (Homo sapiens, UniProt P00918); experiment: Human carbonic anhydrase II colorimetric (p-nitrophenyl acetate) inhibition assay; format: biochemical; details: mean ± SEM, three independent experiments in triplicate; read-out: CA II (IC50)
# T1 construct: purchased Sino Biological Inc, Beijing, China
# Experimental: (§1) In brief, the reaction mixture contained 60 μL of 50 mM Tris-sulfate buffer (pH 7.6, containing 0.1 mM ZnCl2),10 μL (0.5 mM) of the test compound in 1% DMSO, and 10 μL of human carbonic anhydrase II and IX (Sino Biological Inc, Beijing, China). All the ingredients were mixed well and pre-incubated at 25°C for 10 min. Substrate p-nitrophenyl acetate was prepared as a 6 mM stock solution using 5% of acetonitrile in buffer and was used fresh. […] The total assay volume was adjusted to 100 μL and further incubated at 37°C for 30 min. Furthermore, all the ingredients were mixed properly, and absorbance was measured. […] The results reported are the mean of triplicate experiments (±SEM) and expressed IC50 values, which were calculated.
# [2] = biological target: T2, human carbonic anhydrase IX (Homo sapiens, UniProt Q16790); experiment: Human carbonic anhydrase IX colorimetric (p-nitrophenyl acetate) inhibition assay; format: biochemical; details: mean ± SEM, three independent experiments in triplicate; read-out: CA IX (IC50)
# T2 construct: purchased Sino Biological Inc, Beijing, China
# Experimental: as §1
# MES-induced seizures = experiment: Maximal electroshock-induced seizure (MES) test; format: in vivo, male Swiss albino mice;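 as to % protection MES 0.5 h: percent reduction of the test group versus the control group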;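 as to % protection MES 4 h: percent reduction of the test group versus the control group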
# PTZ-induced seizures = experiment: Subcutaneous pentylenetetrazole (sc-PTZ) test; format: in vivo, male Swiss albino mice;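 as to % protection Sc-PTZ 0.5 h: percent reduction of the test group versus the control group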;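 as to % protection Sc-PTZ 4 h: percent reduction of the test group versus the control group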
# mice = experiment: Rotarod neurotoxicity screening; format: in vivo, male Swiss albino mice
# Experimental: The rotarod test, as described in the literature, was used to evaluate neurotoxicity (NT) in mice. In brief, six mice (one group) were trained to balance on a spinning rod (3 cm diameter and 6 rpm speed) to familiarize with the rotarod apparatus (Orchid Scientific, India). Each mouse underwent three trials to remain on the rotating rod for over 1 minute, with the experiment’s cutoff time (180 s) remaining constant. Different pre-oral (p.o.) doses of test and standard substances were administered to the trained animals.
# nitric oxide (NO) = experiment: Nitrite/NO level (Greiss reagent) in brain homogenate of PTZ-treated mice; format: in vivo; details: brain supernatant, compared to pentylenetetrazole-treated group, n = 6
# Experimental: (§2) Brain tissue homogenates were prepared by isolating the brain (tissue) from the mice. Animals were euthanized under anesthesia by ketamine (80 mg/kg) and xylazine (5 mg/kg) after 8 h of inducing test and standard compounds. Mice’s brains (tissue) were quickly removed and weighed, and the whole brain samples were washed twice with ice-cold saline solution before being deposited in glass vials, labeled, and stored in a deep freeze (−30°C) until further use. Brain tissue samples were homogenized with a glass handheld homogenizer (PTFE coated). Tissue homogenates (10% w/v) were prepared in cold 0.1 M phosphate buffer (pH adjusted to 7.4) using a homogenizer. To test biological parameters, the supernatant from homogenates was centrifuged at 12,000 rpm for 20 min at 4°C.
# Greiss reagent, a solution of 0.5% sulfonamide, 2.5% phosphoric acid, and 0.05% naphthyl ethylenediamine, was used to measure nitric oxide (NO) in TSH. Greiss reagent and TSH absorbance were measured at 540 nm, and the sodium nitrite standard curve was used to calculate the quantity of nitrite ([Wills, 1996]; [Green et al., 1982]).
# glutathione (GSH) = experiment: Reduced glutathione level in brain of PTZ-treated mice; format: in vivo; details: compared to pentylenetetrazole-treated group, n = 6
# Experimental: as §2
# The quantity of glutathione (GSH) in the brain was determined using the Sedlak and Lindsay method ([Pant et al., 2023]). In brief, brain tissue was deproteinized with an equal amount of 10% TCA and left at 4°C for 2 h. The contents were centrifuged for 15 min at 1200 rpm. The supernatant was mixed with 2 mL of 0.4 M Tris buffer (pH 8.9) containing 0.02 M EDTA (pH 8.9), and then 0.01 M DTNB was added. Finally, the mixture was diluted with 0.5 mL of distilled water to make a total volume of 3 mL, and absorbance was measured using a spectrophotometer at 412 nm, with results expressed as mg GSH/gm tissue.
# [3] = test system: superoxide dismutase (SOD); experiment: Superoxide dismutase activity in brain homogenate of PTZ-treated mice; format: in vivo; details: compared to PTZ-administered group, n = 6
# Experimental: as §2
# Sun et al.'s approach ([…]) was used to determine Cu, Zn-SOD activity. An oxidase complex ([…]) generates superoxide radicals, which react with NBT to yield the formazan molecule in this process. In brief, a reactive was created by combining 0.1 mM xanthine, 0.1 mM EDTA, 50 mg bovine serum albumin, 25 mM NBT, and 40 mM Na2CO3 (pH 10.2). […] The sample’s absorbance was measured at 560 nm. […] The quantity of the enzyme that blocked NBT conversion to formazan by 50% was determined as one unit of SOD activity. SOD activity was measured in units per milligram of protein.
# [4] = test system: total antioxidant capacity (TAC); experiment: Total antioxidant capacity (FRAP) in brain tissue of PTZ-treated mice; format: in vivo; details: compared to pentylenetetrazole-treated group, n = 6
# Experimental: as §2
# Total antioxidant capacity (TAC) was measured by mixing 200 μL of tissue samples with 3 mL of ferric-reducing antioxidant power (FRAP) reagent in a vortex. After incubating samples and blank tubes in a water bath for 30 min at 37°C, the absorbance of the samples was measured at 593 nm. For the standard curve, a stock solution of FeSO4.7H2O in distilled water was produced. Stock solution concentrations were 200, 400, 800, 1200, and 1600 μM. The curve results were given as mM of ferrous sulfate equivalent Fe2+/L ([Sun et al., 1988]).
# GABA level = experiment: Estimation of brain GABA level; format: in vivo, mice; details: 30 mg/kg p.o., 2 h after administration, compared to pentylenetetrazole-treated group
# Experimental: as §2, with “Animals were euthanized under anesthesia by ketamine (80 mg/kg) and xylazine (5 mg/kg) after 8 h of inducing test and standard compounds.” left out
# The supernatant was put on silica gel 60 F254 aluminum sheets (10 cm × 10 cm) as the stationary phase, with the mobile phase consisting of water-saturated phenol. Prior to chromatography, TLC plates were prewashed with methanol and activated in an oven at 50°C for 5 min. The 0.1 mL supernatant solutions were applied in the form of bands on TLC plates. At room temperature, ascending development was carried out in a glass chamber saturated with the mobile phase for 30 min until a length of 80 mm was reached. The TLC plates that had been created were air-dried and treated with ninhydrin. […] The method’s specificity was determined by obtaining standard GABA samples and comparing their Rf values. […]
# induced seizures = experiment: Anticonvulsant screening (MES and sc-PTZ), outcome recovery/death
# Experimental: The test compounds and the standard drugs were dissolved in a 0.9% NaCl solution.
# After half an hour of p.o. administration of the standard and the tested compounds, an electro-convulsometer (Outus, Ambala Cantt, India) delivered an electrical stimulus of sufficient intensity (25 mA, 500 V, 50 Hz, 0.2 s) via auricular electrodes to induce maximal seizures (Figure 1). To avoid the animal’s death, a drop of 0.9% saline was injected into the eye before the insertion of the electrodes. The tonic hind limb extension (i.e., the hind limbs of the animals outstretched 180° to the plane of the body axis) served as the basic principle for the occurrence of seizure activity. Abolition of the hind limb tonic extensor (HLTE) component of the seizure is defined as protection.
# [5] = oral, lowest dose active in half or more of the mice, 0.5 h, n = 6
# [6] = oral, lowest dose active in half or more of the mice, 4 h, n = 6
compound,measurement,setting,value
"CCN(CC)CCOc1cccc(C(=O)Nc2nncs2)c1 [Compound 6d, 3-(2-(diethylamino)ethoxy)-N-(1,3,4-thiadiazol-2-yl)benzamide]",IC50,[1],0.08 ± 0.05 µM
same,IC50,[2],0.1 ± 0.02 µM
same,% protection MES 0.5 h,"MES-induced seizures; 30 mg/kg oral, 0.5 h",38.96%
same,% protection MES 4 h,"MES-induced seizures; 30 mg/kg oral, 4 h",41.53%
same,% protection MES 0.5 h,"MES-induced seizures; 100 mg/kg oral, 0.5 h",55.38%
same,% protection MES 4 h,"MES-induced seizures; 100 mg/kg oral, 4 h",60%
same,% protection MES 0.5 h,"MES-induced seizures; 300 mg/kg oral, 0.5 h",72.30%
same,% protection MES 4 h,"MES-induced seizures; 300 mg/kg oral, 4 h",89.46%
same,Minimum active dose (mg/kg) MES 0.5 h,MES-induced seizures; [5],30 mg/kg
same,Minimum active dose (mg/kg) MES 4 h,MES-induced seizures; [6],30 mg/kg
same,% protection Sc-PTZ 0.5 h,"PTZ-induced seizures; 30 mg/kg oral, 0.5 h",38.59%
same,% protection Sc-PTZ 4 h,"PTZ-induced seizures; 30 mg/kg oral, 4 h",46.34%
same,% protection Sc-PTZ 0.5 h,"PTZ-induced seizures; 100 mg/kg oral, 0.5 h",58.30%
same,% protection Sc-PTZ 4 h,"PTZ-induced seizures; 100 mg/kg oral, 4 h",66.34%
same,% protection Sc-PTZ 0.5 h,"PTZ-induced seizures; 300 mg/kg oral, 0.5 h",70.4%
same,% protection Sc-PTZ 4 h,"PTZ-induced seizures; 300 mg/kg oral, 4 h",82.88%
same,Minimum active dose (mg/kg) Sc-PTZ 0.5 h,PTZ-induced seizures; [5],30 mg/kg
same,Minimum active dose (mg/kg) Sc-PTZ 4 h,PTZ-induced seizures; [6],30 mg/kg
same,"Neurotoxicity (rotarod test), result in words",mice; at the highest dose (300 mg/kg),without any sign of neurotoxicity
same,Neurotoxicity dose (mg/kg) 0.5 h,"mice; rotarod, oral doses 30, 100, 300 mg/kg, 0.5 h",- (The indication - (dash) denotes a lack of action at the maximum dose supplied (300 mg/kg))
same,Neurotoxicity dose (mg/kg) 4 h,"mice; rotarod, oral doses 30, 100, 300 mg/kg, 4 h",- (The indication - (dash) denotes a lack of action at the maximum dose supplied (300 mg/kg))
same,NO (nitrite) level,nitric oxide (NO),significantly reduced NO levels
same,GSH level,glutathione (GSH),significant increase in GSH levels
same,SOD activity,[3],significant increase in SOD activity
same,TAC level (FRAP),[4],significant increase in TAC levels
same,GABA level in the brain,GABA level,significant increase in GABA levels
same,Recovery/death,induced seizures; 30 mg/kg oral,Recovery
same,Recovery/death,induced seizures; 100 mg/kg oral,Recovery
same,Recovery/death,induced seizures; 300 mg/kg oral,Recovery
